Measurements from BindingDB's records for doi:10.7270/Q2XS5SSN (Nmmlsc, 2010).

biological target: T1, GTPase KRas [1-37] (Homo sapiens, UniProt G3V5T7); assay: inhibitors of GTP binding to wildtype Ras, dose response, biochemical, multiplex bead flow cytometry (AID 1335)
T1 construct: 1-37
T1 sequence (G3V5T7 whole entry): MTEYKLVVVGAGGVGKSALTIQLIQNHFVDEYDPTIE

Structure (SMILES)	EC50
CCN1C(c2ccccc2)=C(c2ccccc2)S/C1=C/C=C1\SC(=S)N(C)C1=O [(5Z)-5-[(2E)-2-(3-ethyl-4,5-diphenyl-1,3-thiazol-2-ylidene)ethylidene]-3-methyl-2-sulfanylidene-1,3-thiazolidin-4-one]	33.6 µM
Cc1cc(C(=O)O)sc1CNCc1ccccc1Cl [5-[[(2-chlorobenzyl)amino]methyl]-4-methyl-2-thenoic acid]	0.0782 µM
CC1(C)Cc2c(sc(NC(=S)NC(=O)c3ccccc3)c2C(=O)O)CO1 [2-(benzoylcarbamothioylamino)-5,5-dimethyl-4,7-dihydrothieno[2,3-c]pyran-3-carboxylic acid]	0.0993 µM
CCS(=O)(=O)N1N=C(c2cccc(NS(C)(=O)=O)c2)CC1c1ccc(C)cc1 (stereo not given) [MLS000680398]	2.61 µM
O=C(O)c1ccccc1OCc1ccccc1Br [2-(2-bromobenzyl)oxybenzoic acid]	0.109 µM
CCn1cc(C=C2C(=O)c3ccccc3C2=O)c2ccccc21 [2-[(1-ethyl-3-indolyl)methylidene]indene-1,3-dione]	7.96 µM

Further molecules by falling EC50, results first:

EC50	Structure (SMILES)
43.7 µM	Cc1ccc(-n2c(=O)cc(N3CCc4ccccc4C3)[nH]c2=O)cc1
8.92 µM	Cc1cc(NC(=O)CSc2nc(O)c(C#N)c(-c3ccccc3)n2)no1 [2-[(5-cyano-4-oxidanylidene-6-phenyl-1H-pyrimidin-2-yl)sulfanyl]-N-(5-methyl-1,2-oxazol-3-yl)ethanamide]
4.03 µM	O=C(O)/C=C/c1cn(Cc2ccccc2)nc1-c1cccs1 [(E)-3-(1-benzyl-3-thiophen-2-ylpyrazol-4-yl)prop-2-enoic acid]
3.66 µM	Cc1cc(C(=O)Oc2ccccc2C(=O)O)c(C)o1 [2-(2,5-dimethyl-3-furoyl)oxybenzoic acid]
